Reference: patent US20240226107A1, “UBIQUITIN-SPECIFIC PROTEASE 1 (USP1) INHIBITOR” (SIMCERE ZAIMING PHARMACEUTICAL CO., LTD., priority 2021, published 2024)

Experiments:
CYP2C19 = CYP2C19 (Homo sapiens (Human), UniProt P33261); experiment: CYP enzyme inhibition in pooled human liver microsomes (S-mephenytoin); format: in vitro ADME
Experimental: (§1) Typical substrate metabolic responses of five major human CYP subtypes (CYP1A2, CYP2C9, CYP2C19, CYP2D6, CYP3A4) were evaluated using 150-donor pooled human liver microsomes (purchased from Corning, Cat. No.: 452117). The influence of different concentrations of each compound to be tested on metabolic responses of phenacetin (CYP1A2), diclofenac sodium (CYP2C9), S-mephenytoin (CYP2C19), bufuralol hydrochloride (CYP2D6), and midazolam (CYP3A4) was determined by liquid chromatography-mass spectrometry (LC/MS/MS). […] Then 200 μL of acetonitrile solution containing 3% formic acid and 40 nM internal standard verapamil was added and centrifuged at 4000 rpm for 50 min. The mixture was cooled on ice for 20 min and centrifuged at 4000 rpm for 20 min to precipitate the protein. Then 200 μL of supernatant was analyzed by LC-MS/MS. The peak area was calculated from the chromatogram. The residual activity ratio (%) was calculated according to the following equation: Peak area ratio=metabolite peak area/internal standard peak area Residual activity ratio (%)=peak area ratio of compounds-to-be-tested group/peak area ratio of blank group The half inhibitory concentration (IC50) for CYP was calculated by Excel XLfit 5.3.1.3.

[1] = Caco-2 permeability assay; format: in vitro ADME; details: human, pH 7.4
Experimental: The apparent permeability coefficient (Papp) of the analytical drug was determined by liquid chromatography-mass spectrometry (LC-MS/MS) through a Caco-2 cell model.
In this test example, Caco-2 cells were purchased from American Type Culture Collection (ATCC); 4-hydroxyethyl piperazine ethane sulfonic acid (HEPES) was purchased from Beijing Solarbio Science & Technology Co., Ltd.; Hanks' balanced salt solution (HBSS) and non-essential amino acids (NEAA) were purchased from ThermoFisher Scientific; penicillin, streptomycin, and trypsin/EDTA were purchased from Solarbio; fetal bovine serum (FBS) and DMEM medium were purchased from Corning; HTS-96-well Transwell plates and other sterile consumables were purchased from Corning; Millicell resistance measuring system was purchased from Millipore; Cellometer®K2 was purchased from Nexcelom Bioscience; Infinite 200 PRO microplate reader was purchased from Tecan; and MTS2/4 orbital shaker was purchased from IKA Labortechnik.
Caco-2 cells were cultured in a culture flask. […] Cells at a confluency of 70-90% can be used to inoculate the Transwell. Prior to cell inoculation, 50 μL of cell culture medium was added to each well of the upper Transwell chamber and 25 mL of cell culture medium was added to the lower plate. The plate was incubated in an incubator (37° C., 5% CO2) for 1 h, and then inoculated with cells. After cell digestion, the cell suspension was pipetted and transferred to a round bottom centrifuge tube for centrifugation at 120 g for 5 min. […] The medium was changed as follows: transwell chambers were separated from the receiver plate, medium in the receiver plate was discarded, then medium in the Transwell chambers was discarded, and finally, 75 μL of fresh medium was added to each chamber, and 25 mL of fresh medium was added to the receiver plate.
After approximately 14 days of culture, the Caco-2 cells reached the confluency and completed differentiation. In this case, the cells can be applied to permeability assay. The monolayer resistance was measured with a resistance meter (Millipore, USA) and the resistance per well was recorded. After the measurement, the Transwell plate was put back to the incubator. Calculation of resistance: measured resistance value (ohms)×membrane area (cm^2)=TEER value (ohm·cm^2); if TEER value <230 ohms·cm^2, the well can not be used for permeability assay.
In 900 mL of purified water, 2.38 g HEPES and 0.35 g sodium bicarbonate were dissolved, then 100 mL of 10×HBSS was added and stirred well, pH was adjusted to 7.4, and finally, the resulting solution was filtered to obtain 1 L of transport buffer (HBSS, 10 mM HEPES, pH 7.4).
A DMSO stock solution of 1 mM of compound to be tested was diluted with the transport buffer to obtain 5 μM test solution. The control compound digoxin or minoxidil was diluted with DMSO to 2 mM, and diluted with the transport buffer described above to 10 μM to obtain a control compound test solution. In addition, DMSO was also diluted with the transport buffer described above to a receiving end solution containing 0.5% DMSO.
The Transwell plate was removed from the incubator. Monolayer cell membranes were rinsed twice with the transport buffer (10 mM HEPES, pH 7.4) and incubated at 37° C. for 30 min.
The transport rate of the compound from the apical side to the basolateral side was determined. […]
The transport rate of the compound from the basolateral side to the apical side was determined.

CYP2D6 = CYP2D6 (Homo sapiens (Human), UniProt P10635); experiment: CYP enzyme inhibition in pooled human liver microsomes (bufuralol hydrochloride); format: in vitro ADME
Experimental: as §1

PXR = PXR (Homo sapiens (Human), UniProt O75469); experiment: Potential for PXR activation in DPX2 cells; format: cell-based; details: 30 μM, versus 20 μM rifampicin
Experimental: DMSO solutions of the compounds to be tested and the control compound rifampicin solution were prepared, and diluted with Puracyp dosing medium (Puracyp, Cat. No: D-500-100) at 37° C. to respective test concentrations. The final concentrations of the compounds to be tested were 30 μM, 10 μM, and 1 μM, respectively, and the final concentration of rifampicin was 20 μM. The final concentration of DMSO in the test solution was 0.1%. In addition, 0.1% DMSO solution prepared with Puracyp dosing medium was used as a control.
DPX2 cells were suspended in Puracyp Culture medium (Puracyp, Cat No.: C-500-100) at a cell density of 4.5×10^5 cell/mL. Then, the suspension was placed on a 96-well culture plate at 100 μL/well for incubation at 37° C. for 24 h. The medium in appropriate wells of the 96-well culture plate was replaced (three times per well) by 100 μL of solution of the compounds to be tested and a control compound solution. After replacement, the plate was incubated at 37° C. for 24 h. The medium was then replaced (three times per well) by a newly prepared test solution of the compounds to be tested and a rifampicin test solution, and the plate was incubated at 37° C. for 24 h.
The medium in the 96-well culture plate was pipetted and washed twice with PBS. To each well, 50 μL of reagent diluted as required by CellTiter-Fluor™ Cell Viability Assay Kit (Promega, Cat. No.: G6082) was added, and incubated at 37° C. for 0.5 h. The 96-well plate was cooled to room temperature, and the fluorescence value of each well at 505 nm was measured in a fluorescence mode with a microplate reader at an excitation wavelength of 400 nm. Then, 50 μL of reagent prepared as required by One-Glo Luciferase Assay System (Promega, Cat. No.: E6120) was added to each well, and the mixture was incubated at room temperature for 5 min. The luminescence value of each well was read by using a lumen meter.
Normalized luciferase activity was determined by RLU/RFU, and the RLU and RFU of the samples were mean values of duplicate wells, respectively.
[formula] • Fold of activation: fold of activation of normalized luciferase; • RLUtest: measured luminescence value of test wells at each test dose of test compounds; • RLUvehicle: measured luminescence value of test wells when tested with the control DMSO solution; • RFUtest: measured fluorescence value of test wells at each test dose of test compounds; • RFUvehicle: measured fluorescence value of test wells when tested with the control DMSO solution.
The percentage of positive control was calculated as follows:
% Positive control=(fold activationtest compound−1)/(fold activationpositive control compound−1)×100% • % Positive control: percentage of PXR activation compared with 20 μM rifampicin activation at each test dose of test compounds; • Fold activationtest compound: fold of activation of normalized luciferase at each test dose of test compounds; • Fold activationpositive control compound: fold of activation of normalized luciferase of test compounds under 20 μM rifampicin.

[2] = Metabolic stability in vitro in human hepatocytes; format: in vitro ADME; details: read-out: Intrinsic clearance
Experimental: The concentration of each compound in the reaction system was measured by LC/MS/MS to calculate the intrinsic clearance of the compounds to be tested, and evaluate the metabolic stability in vitro in human hepatocytes.
To the incubation plate, 198 μL of 0.5×10^6 cells/mL human hepatocyte mixture and 2.0 μL of 100 μM compound to be tested or positive control were added to initiate reaction. Incubation was performed at 900 rpm at 37° C. […] Then the mixture was vortex-mixed for 5 min. […] Then 100 μL of supernatant of each compound was transferred to a 96-well sample plate, and 100 μL of purified water was added to dilute the sample.
The resulting samples were quantified by ion chromatograms. The residual rate was calculated from peak areas of the compounds to be tested or the positive control. The slope k was determined using Microsoft Excel by linear regression of natural logarithm of the residual rate to the incubation time. The intrinsic clearance (in vitro CLint, μL/min/10^6 cells) was calculated from the slope value according to the following equation: […]

[3] = Metabolic stability in vitro in rat hepatocytes; format: in vitro ADME; details: read-out: Intrinsic clearance
Experimental: The concentration of each compound in the reaction system was measured by LC/MS/MS to calculate the intrinsic clearance of the compounds to be tested, and evaluate the metabolic stability in vitro in rat hepatocytes.
To the incubation plate, 198 μL of 0.5×10^6 cells/mL rat hepatocyte mixture and 2.0 μL of 100 μM compound to be tested or positive control were added to initiate reaction. Incubation was performed at 900 rpm at 37° C. […] Then the mixture was vortex-mixed for 5 min. […] Then 100 μL of supernatant of each compound was transferred to a 96-well sample plate, and 100 μL of purified water was added to dilute the sample. The resulting samples were quantified by ion chromatograms. The residual rate was calculated from peak areas of the compounds to be tested or the positive control. The slope k was determined using Microsoft Excel by linear regression of natural logarithm of the residual rate to the incubation time. The intrinsic clearance (in vitro CLint, μL/min/10^6 cells) was calculated from the slope value according to the following equation: […]

CYP2C9 = CYP2C9 (Homo sapiens (Human), UniProt P11712); experiment: CYP enzyme inhibition in pooled human liver microsomes (diclofenac sodium); format: in vitro ADME
Experimental: as §1

Sequence of CYP2D6 (P10635 whole entry): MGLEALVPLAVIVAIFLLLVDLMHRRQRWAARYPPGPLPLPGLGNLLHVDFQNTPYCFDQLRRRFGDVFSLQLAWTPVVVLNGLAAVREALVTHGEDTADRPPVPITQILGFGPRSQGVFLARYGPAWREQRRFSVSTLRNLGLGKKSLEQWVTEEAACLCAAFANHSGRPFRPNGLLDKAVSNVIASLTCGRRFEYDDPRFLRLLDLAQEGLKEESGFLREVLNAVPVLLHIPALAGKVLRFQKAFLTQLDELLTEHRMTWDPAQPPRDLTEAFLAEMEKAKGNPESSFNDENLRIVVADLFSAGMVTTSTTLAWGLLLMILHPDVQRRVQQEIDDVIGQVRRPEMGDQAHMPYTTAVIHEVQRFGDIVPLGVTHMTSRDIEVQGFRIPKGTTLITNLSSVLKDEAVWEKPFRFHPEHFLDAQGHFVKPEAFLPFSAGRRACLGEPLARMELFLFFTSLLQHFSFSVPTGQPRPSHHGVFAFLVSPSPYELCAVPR
Sequence of CYP2C9 (P11712 whole entry): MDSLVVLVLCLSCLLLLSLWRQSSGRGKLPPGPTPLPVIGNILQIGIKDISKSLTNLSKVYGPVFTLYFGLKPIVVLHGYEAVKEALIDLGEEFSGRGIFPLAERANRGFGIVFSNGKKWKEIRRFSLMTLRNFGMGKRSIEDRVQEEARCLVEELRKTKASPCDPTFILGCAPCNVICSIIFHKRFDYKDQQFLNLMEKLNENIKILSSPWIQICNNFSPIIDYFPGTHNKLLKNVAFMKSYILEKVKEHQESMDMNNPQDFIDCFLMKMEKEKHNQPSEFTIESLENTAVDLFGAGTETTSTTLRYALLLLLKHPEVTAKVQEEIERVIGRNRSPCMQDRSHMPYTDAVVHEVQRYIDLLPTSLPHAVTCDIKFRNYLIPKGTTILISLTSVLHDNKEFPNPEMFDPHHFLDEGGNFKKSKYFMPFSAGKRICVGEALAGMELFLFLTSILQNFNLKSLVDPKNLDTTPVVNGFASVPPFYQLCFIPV
Sequence of PXR (O75469 whole entry): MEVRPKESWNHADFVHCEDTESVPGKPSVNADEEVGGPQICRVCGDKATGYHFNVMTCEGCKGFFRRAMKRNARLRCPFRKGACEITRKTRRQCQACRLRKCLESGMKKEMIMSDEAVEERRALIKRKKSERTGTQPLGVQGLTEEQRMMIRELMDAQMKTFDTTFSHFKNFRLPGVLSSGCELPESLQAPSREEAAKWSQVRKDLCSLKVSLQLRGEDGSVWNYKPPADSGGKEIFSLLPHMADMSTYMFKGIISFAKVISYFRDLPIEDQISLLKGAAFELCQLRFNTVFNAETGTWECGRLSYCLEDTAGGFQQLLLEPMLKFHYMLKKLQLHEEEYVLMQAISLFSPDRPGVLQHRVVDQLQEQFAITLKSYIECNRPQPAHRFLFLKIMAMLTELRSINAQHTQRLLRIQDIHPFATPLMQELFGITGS
Sequence of CYP2C19 (P33261 whole entry): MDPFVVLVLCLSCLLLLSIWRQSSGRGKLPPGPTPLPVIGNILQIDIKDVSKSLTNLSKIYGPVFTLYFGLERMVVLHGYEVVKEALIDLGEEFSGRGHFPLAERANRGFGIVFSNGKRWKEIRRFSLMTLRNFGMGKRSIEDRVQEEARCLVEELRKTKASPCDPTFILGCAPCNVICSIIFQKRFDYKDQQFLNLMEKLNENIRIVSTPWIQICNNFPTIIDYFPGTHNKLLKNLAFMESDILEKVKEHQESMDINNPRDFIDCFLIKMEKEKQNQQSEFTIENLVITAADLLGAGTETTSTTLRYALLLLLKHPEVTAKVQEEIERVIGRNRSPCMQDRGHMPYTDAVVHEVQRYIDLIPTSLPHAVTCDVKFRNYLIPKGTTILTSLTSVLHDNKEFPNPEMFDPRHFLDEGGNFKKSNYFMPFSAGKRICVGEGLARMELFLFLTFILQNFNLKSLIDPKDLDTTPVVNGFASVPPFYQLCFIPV

COc1ncnc(C2CC2)c1-c1ncc2c(n1)N(Cc1ccc(-c3nc(C(F)(F)F)cn3C)cc1)CC(=O)N2C [Compound 11, 2-(4-cyclopropyl-6-methoxypyrimidin-5-yl)-5-methyl-8-(4-(1-methyl-4-(trifluoromethyl)-1H-imidazol-2-yl)benzyl)-7,8-dihydropteridin-6(5H)-one]
IC50 (CYP2C19): 17.1 µM
Papp A→B at 2 h, 5 μM ([1]; Caco-2, 5 μM, 2 h, apical to basolateral): 4.9 ×10⁻⁶ cm/s
Papp B→A at 2 h, 5 μM ([1]; Caco-2, 5 μM, 2 h, basolateral to apical): 17.6 ×10⁻⁶ cm/s
efflux ratio at 2 h, 5 μM ([1]; Caco-2, Papp (B−A)/Papp (A−B)): 3.6
IC50 (CYP2D6): > 30 µM
PXR activation (% Positive control) (PXR): 14.0 % Positive control
hepatocyte CLint at 1 μM [2]: < 1 µL/min/1e6 cells
hepatocyte CLint at 1 μM [3]: < 1 µL/min/1e6 cells
IC50 (CYP2C9): 28.9 µM
